Test results from BindingDB's records for PubMed 7853174 (Merck Research Laboratories, 1995).

Biological target: T1, Type-2 angiotensin II receptor (Rattus norvegicus, UniProt P35351)
T1 sequence (P35351 whole entry): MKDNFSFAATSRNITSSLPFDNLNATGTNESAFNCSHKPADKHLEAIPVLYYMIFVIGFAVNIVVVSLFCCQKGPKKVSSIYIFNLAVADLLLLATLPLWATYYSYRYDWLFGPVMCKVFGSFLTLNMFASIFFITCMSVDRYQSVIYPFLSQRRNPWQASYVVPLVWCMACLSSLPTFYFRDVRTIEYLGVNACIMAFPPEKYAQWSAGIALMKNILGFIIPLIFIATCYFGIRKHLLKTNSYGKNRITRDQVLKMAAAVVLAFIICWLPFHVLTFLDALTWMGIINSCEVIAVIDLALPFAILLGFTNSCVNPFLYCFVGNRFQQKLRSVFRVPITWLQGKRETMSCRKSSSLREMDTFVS

Q: How did the Ki turn out when CCCc1nc(C(F)(F)C(F)(F)F)c(C(=O)O)n1Cc1ccc(-c2ccccc2-c2nnn[nH]2)cc1 [CAS_124750-95-4] was run?
A: 5.77 µM
